According to the supplement of paper PMC10307832:

Tests used:
Assay in all cases: relative viability (nuclei count vs DMSO), 5 days (fraction); higher = more cells survive
SGI-1776 + Olaparib = compound: CN1CCC(CNc2ccc3ncc(-c4cccc(OC(F)(F)F)c4)n3n2)CC1 [SGI-1776] + O=C(c1cc(Cc2n[nH]c(=O)c3ccccc23)ccc1F)N1CCN(C(=O)C2CC2)CC1 [Olaparib] (partner 8 µM)
Summary of the method: (§1)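 Lung cancer cell lines were pin-tool dosed in 1536-well plates on the day after seeding, with either a lone drug or a fixed anchor-drug dose plus five library-drug doses (not always all listed) in √10 steps. Nuclei were counted on 4× images after 5 days. Relative viability is the ratio of treated-well to vehicle-well nuclei counts, with each value a median of duplicate plates.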

[1] = compound: C1COCCN1C2=NC(=NC3=C2OC4=C3C=CC=N4)C5=CC(=CC=C5)NC(=O)C6=CN=C(C=C6)N + Cc1nc(NC(=O)N2CCC[C@H]2C(N)=O)sc1-c1ccnc(C(C)(C)C(F)(F)F)c1 [Alpelisib] (partner 2 µM)
Summary of the method: as §1

Entinostat + OSI-027 = compound: Nc1ccccc1NC(=O)c1ccc(CNC(=O)OCc2cccnc2)cc1 [Entinostat] + COc1cccc2cc(-c3nc([C@H]4CC[C@H](C(=O)O)CC4)n4ncnc(N)c34)[nH]c12 [OSI-027] (partner 0.5 µM)
Summary of the method: as §1

[2] = compound: C1COCCN1C2=NC(=NC3=C2OC4=C3C=CC=N4)C5=CC(=CC=C5)NC(=O)C6=CN=C(C=C6)N + CC1(C)CCC(c2ccc(Cl)cc2)=C(CN2CCN(c3ccc(C(=O)NS(=O)(=O)c4ccc(N[C@H](CCN5CCOCC5)CSc5ccccc5)c(S(=O)(=O)C(F)(F)F)c4)cc3)CC2)C1 [Navitoclax] (partner 0.5 µM)
Summary of the method: as §1

For UMC-11, the relative viability (SGI-1776 + Olaparib; first compound 0.08 µM) was 0.337, the relative viability (SGI-1776 + Olaparib; first compound 0.8 µM) was 0.433 and the relative viability (SGI-1776 + Olaparib; first compound 2.53 µM) was 0.289. The relative viability (SGI-1776 + Olaparib; first compound 8 µM) was 0.206, the relative viability ([1]; first compound 0.02 µM) was 1.06 and the relative viability ([1]; first compound 0.06325 µM) was 1.04. For the same cell line, the relative viability ([1]; first compound 0.2 µM) was 1.03, the relative viability ([1]; first compound 0.6325 µM) was 1.08 and the relative viability ([1]; first compound 2 µM) was 0.593. For the same cell line, the relative viability (Entinostat + OSI-027; first compound 0.02 µM) was 0.445, the relative viability (Entinostat + OSI-027; first compound 0.06325 µM) was 0.499 and the relative viability (Entinostat + OSI-027; first compound 0.2 µM) was 0.388. For the same cell line, the relative viability (Entinostat + OSI-027; first compound 0.6325 µM) was 0.207, the relative viability (Entinostat + OSI-027; first compound 2 µM) was 0.213 and the relative viability ([2]; first compound 0.02 µM) was 0.278. It also gave a relative viability ([2]; first compound 0.06325 µM) of 0.292, a relative viability ([2]; first compound 0.2 µM) of 0.266 and a relative viability ([2]; first compound 0.6325 µM) of 0.284. The relative viability ([2]; first compound 2 µM) was 0.246.
